The text below walks through data of patent publication US20230270764A1, “COMPOSITION COMPRISING CANNABINOIDS, TERPENES, AND FLAVONOIDS FOR TREATING DEPRESSION” (priority 2020, published 2023).

In experiment [1] the test system is BV2 microglial cells. The experiment in a line: LPS-induced TNFα secretion by BV2 microglia cell cultures (ELISA). Conditions: for effect on lipopolysaccharide-induced TNFα secretion: THC 0.1, 0.5 and 1 µM, CBDA 0.2, 1 and 2 µM, CBC 0.1, 1 and 2 µM, α-pinene, β-pinene, limonene 25 or 100 µM; for IC50: Mus musculus, BV-2, read-out: IC50 for inhibiting LPS-induced TNFα release; for levels of TNFα compared to cultures treated with vehicle and LPS: 24-hours incubation, CBD 10 but not 1 µM, linalool 100 but not 25 µM, kaempferol dose-dependently at 10, 25 and 50 µM, quercetin 10 and 25 but not 5 µM. Type of experiment: cell-based, murine. As for the experimental part: (§1) The BV2 murine microglial cell line is used in these studies.
(§2) The BV2 cells are cultured at 37° C. in a humidified atmosphere with 5% CO2 in high D-glucose (4.5 g/L) Dulbecco’s modified Eagle’s medium (Sigma, Rehovot, Israel) supplemented with 5% heat-inactivated fetal bovine serum, streptomycin (100 µg/ml), and penicillin (100 units/ml) and sodium pyruvate (1 mM; all from Biological Industries Ltd., Kibbutz Beit Haemek, Israel). 24 hours before experiments with LPS stimulation, the BV2 cells are split into 24 well plates, 2×10^5 cells per well, covered with 1 ml of growth medium and allowed to attach overnight. 24 hr before experiments with α-synuclein, the BV2 cells are split into 96-well plates, 50,000 (5×10^4) cells per well, covered with 200 µl of growth medium and allowed to attach overnight. Cultures of BV2 microglia cells are first treated by an individual cannabinoid, or terpene or flavonoid selected from: Cannabidiol (CBD), Δ-9-tetrahydrocannabinol (THC), Δ-8-tetrahydrocannabinol (THC), cannabigerol (CBG), cannabichromene (CBC), cannabigerolic acid (CBGA), Cannabidiolic acid (CBDA), THC acid (THCA), cannabichromenic Acid (CBCA), Cannabidivarin (CBDV), tetrahydrocannabivarin (THCV), Cannabichromevarin (CBCV), Cannabichromerocin ([…]), Cannabivarin (CBV), Cannabicitran (CBT), Cannabinol (CBN), Cannabicyclol (CBL), Cannabigerorcin (CBGO), Cannabinodiol (CBND), β-caryophyllene, β-elemene, β-myrcene, linalool, α-pinene, β-pinene, eucalyptol, alpha-terpineol, valencene, geraniol (lemonol), bisabolol, nerolidol, ocimene, terpinolene, humulene, α-terpinene, camphene, fenchol, α-phellandrene, Δ3-carene, γ-cardinene, sabinene, limonene, β-amyrin, cycloartenol, cannflavin A, cannflavin B, kaempferol, quercetin, luteolin, apigenin, canniprene, orientin, β-sitosterol, vitexin, isovitexin, and chrysin. Additional cultures of BV2 microglia cells are treated by an individual cannabinoid, with at least one additional cannabinoid, and/or terpene, and/or flavonoid, and/or celecoxib. Additional cultures are exposed to the vehicle of these compounds (cremophor, ethanol and PBS, 1:1:18 (v/v/v)) (FIG. 2A). In some studies, cultures of BV2 microglia cells are treated by a specific whole plant cannabis extract, with or without supplementation with cannabinoid(s), and/or terpene(s) and/or flavonoid(s), and/or celecoxib (FIG. 2B).
For each individual cannabinoid mentioned above, 3-4 concentrations are used, ranging from 0.1 to 10 µM. For ultra-low dose Δ9-THC the concentration used is 0.01 µM. […] For celecoxib, 3-4 concentrations are used, ranging from 0.1 to 10 µM. Two hours following the treatment, the cultures are exposed to one of the following microglia stimulators: LPS (Sigma L2630; Escherichia coli serotype O111:B4) is dissolved in D-PBS (Sigma, D8537) to a pre-stock concentration of 1 mg/ml, aliquoted and stored at -80° C. Stock solution of LPS at 10 ug/ml is prepared using sterile D-PBS, followed by filtering via 0.22 µm filter membrane, aliquoting and storing in -20° C. LPS is applied into the cell medium at a final concentration of 100 ng/ml. Poly I:C (Sigma, P1530) was first dissolved in sterile, molecular grade water to the concentration of 10 mg/ml (following the manufacturer’s instructions). This stock solution was further diluted to the concentration of 1 mg/ml in sterile PBS, and the aliquots stored in -20 °C.
Background: An ELISA detects its analyte on a solid surface through an enzyme-linked reagent.

Experiment [2] has as its system BV2 microglial cells. The experiment in a line: LPS-induced IL-6 release by BV2 microglia cell cultures (ELISA). Type of experiment: cell-based, murine. The protocol: as §1, §2
(§3) For each individual cannabinoid mentioned above, 3-4 concentrations are used, ranging from 0.1 to 10 µM. For ultra-low dose Δ9-THC the concentration used is 0.01 µM. For each individual terpene or flavonoid mentioned above, 3-4 concentrations are used, ranging from 1 to 50 µM. For celecoxib, 3-4 concentrations are used, ranging from 0.1 to 10 µM. Two hours following the treatment, the cultures are exposed to one of the following microglia stimulators: LPS (Sigma L2630; Escherichia coli serotype O111:B4) is dissolved in D-PBS (Sigma, D8537) to a pre-stock concentration of 1 mg/ml, aliquoted and stored at -80° C. Stock solution of LPS at 10 ug/ml is prepared using sterile D-PBS, followed by filtering via 0.22 µm filter membrane, aliquoting and storing in -20° C. LPS is applied into the cell medium at a final concentration of 100 ng/ml. Poly I:C (Sigma, P1530) was first dissolved in sterile, molecular grade water to the concentration of 10 mg/ml (following the manufacturer’s instructions). This stock solution was further diluted to the concentration of 1 mg/ml in sterile PBS, and the aliquots stored in -20 °C.

The subject of experiment [3] is LPS-injected mice. The experiment in a line: Body weight change and food consumption in the LPS-induced model of depression. Type of experiment: in vivo. Conditions: Example 9; male C57BL/6, i.p. 1 h before LPS 330 µg/kg; mg/kg: CBD 30; CBD 30 plus THC 10; cannabinol 10; CBD 30 plus BCP 50. An excerpt: Animals were housed 2-3/cage, kept in an air-conditioned room (23+°C) and given ad libitum access to food and water. The mice were kept in a reversed light/dark cycle, with lights off from 7 a.m. to 7 p.m. All experiments were approved by the Hebrew University of Jerusalem Ethics Committee on Animal Care and Use. In preparation for the Sucrose Preference Test, mice were habituated 2-3 times to sucrose drinking, by exposing them overnight to two graduated tubes, one containing water and the other containing sucrose solution (1%, w/v). Water and sucrose consumption were measured, and sucrose preference was computed by dividing the amount of sucrose consumed by drinking (ml sucrose) by the total drinking volume (ml of sucrose + water). One day later, the weight of the mice and the food in their cages was weighed for later analysis of food consumption and body weight changes. Groups of mice were injected intraperitoneally (i.p.) with either vehicle (cremophor, ethanol and PBS, 1:1:18 (v/v/v)) or a cannabinoid-based formulation (by itself or with another cannabinoid, or a terpene or a flavonoid). One hour later, each of these groups was injected with LPS (330 µg/kg). All injections were administered at a dose of 10 ml/kg. Four hours following the LPS injection, mice were tested in the Open-Field Test. In this test, the measured locomotor activity reflects not only motor capacity, but particularly the innate motivation for spatial exploration (which increases the distance travelled) and the anxiety level (which reduces the distance travelled, in general, and particularly the distance and time spent in the center of the open field). Each subject was placed near one of the walls of a white 50 X 50 cm^2 arena with 40 cm high walls. The distance travelled (cm), the velocity of the movement (cm/second), the time spent (seconds), distance travelled (cm) in the center area of the arena, as well as the number of entries from the perimeter area into the center of the arena were automatically measured over a 4-minute period, using EthoVision XT video tracking system and software (Noldus, The Netherlands). Twenty-four hours after the LPS injection, mice were tested in the Social Exploration Test. In this test, the subject was placed in an observation cage containing a small metal wire mesh cage with a conspecific mouse inside it. Social exploration, defined as the time of near contact between the nose of the subject and the juvenile in the small cage was recorded for 4 min, using computerized in-house software. Sucrose preference was assessed, as described above, between 8 to 27 hr post LPS injection. Body weight and weight of the food were measured two hours before the LPS injection, and again after 24 hours, and the change in body weight and food consumption were calculated.
This particular study was conducted in several experimental cohorts, and not all compounds and all measures were studied in all cohort. However, each cohort included a vehicle-treated group; therefore, the scores in each behavioral test were converted to % of mean vehicle-treated group in every individual cohort/experiment. Statistical comparisons were computed using SPSS software and consisted of one-way analyses of variance (ANOVA), followed by post-hoc comparisons with the Student-Newman-Keuls method.

Experiment [4] relates to BV2 microglial cells. The experiment in a line: α-synuclein-induced TNFα secretion by BV2 microglia cell cultures. Type of experiment: cell-based, murine. To be noted: Mus musculus. The protocol: as §2
as §3, with “°C. […] To induce oligomerization, α-Synuclein solution is placed for 24 hours on a shaker with agitation of 80 rpm and at 37° C.” for “°C.”

Experiment [5] has as its system BV2 microglial cells. The experiment in a line: LPS-induced IL-1β release by BV2 microglia cell cultures (ELISA). Type of experiment: cell-based, murine. As for the experimental part:
as §1, §2, §3

Regarding `CCCCCc1cc(O)c2c(c1)OC(C)(CCC=C(C)C)C=C2` (stereo not shown) [CBC, cannabichromene], in experiment [1], the “effect on lipopolysaccharide-induced TNFα secretion” value (“effect” below) is given as “no effect”.
As usually defined, the IC50 is the point on the concentration scale where inhibition reaches its midpoint. On to `C=C(C)[C@@H]1CCC(C)=C[C@H]1c1c(O)cc(CCC)cc1O` [CBDV, cannabidivarin], for which, in experiment [1] (Example 6, IC50 comparison), the “times less potent than CBD in inhibiting TNFα release” value is ~6 times. The “release of TNFα vs LPS-activated cultures treated with vehicle” value in experiment [1] (Example 6, by itself, CBD 1, 2.5 and 5 µM, CBDV 1, 2.5, 5 and 10 µM) is on record as “no concentration of either CBD or CBDV by itself affected release of TNFα”. Besides, the IC50 was 27.9 µM in experiment [1] and 9.6 µM in experiment [2] (Mus musculus, BV-2, Example 6 (FIG. 7D), by itself, read-out: IC50 for inhibiting LPS-induced IL-6 release). In addition, the “IL-6 secretion vs Veh plus LPS” value in experiment [2] (Example 6, CBD or CBDV given by themselves) is on record as “no significant effect”. Besides, in experiment [2] (Example 6, IC50 comparison), the “times less potent than CBD in inhibiting IL-6 release” value was “about 2 times”.
Turning to `CCCCCc1cc(O)c2c(c1)OC(C)(C)[C@@H]1CCC(C)=C[C@@H]21` [THC, Δ-9 tetrahydrocannabinol], the “effect” value in experiment [1] is on record as “no effect”.
Consider `CCCCCc1cc(O)c2c(c1)OC(C)(C)c1ccc(C)cc1-2` [cannabinol], for which the “food consumption over 24 hr vs vehicle-treated group” value in experiment [3] is on record as “consumed significantly less food”.
Regarding `Cc1ccc(-c2cc(C(F)(F)F)nn2-c2ccc(S(N)(=O)=O)cc2)cc1` [celecoxib], the IC50 in experiment [4] (BV-2, Example 8 (FIG. 9B), by itself, read-out: IC50, α-synuclein-induced TNFα release) stood at 4.2 µM; in experiment [4] (BV-2, addition of 1 µM CBD, read-out: celecoxib IC50, α-synuclein-induced TNFα release) it was 2 µM; in experiment [4] (BV-2, addition of 2.5 µM CBD, read-out: celecoxib IC50, α-synuclein-induced TNFα release), 1.7 µM; in experiment [4] (BV-2, addition of 5 µM CBD, read-out: celecoxib IC50, α-synuclein-induced TNFα release) it was 1.1 µM.
On to `C=C(C)[C@H]1CC=C(C)CC1` [limonene], for which the “effect” value in experiment [1] was “no effects”.
With `C=CC(C)(O)CCC=C(C)C` (stereo not shown) [linalool], the “levels of TNFα compared to cultures treated with vehicle and LPS” value in experiment [1] was “reduced”.
As to `O=c1c(O)c(-c2ccc(O)c(O)c2)oc2cc(O)cc(O)c12` [quercetin], in experiment [5] (Example 5, alone at 5 µM, no effect at 1 and 2.5 µM), the “IL-1β release vs Veh plus LPS” value is “significantly decreased IL-1β levels”. Further, in experiment [5] (Mus musculus, BV-2, Example 5 (FIG. 6D), by itself, read-out: IC50 for inhibiting LPS-induced IL-1β release), the IC50 worked out at 2.6 µM. For the same molecule, in experiment [1], the “levels of TNFα compared to cultures treated with vehicle and LPS” value is “reduced”; the IC50 worked out at 6.2 µM. Besides, in experiment [1] (Example 5, by themselves, CBD 1 and 2.5 µM, quercetin 1, 2.5 and 5 µM), the “release of TNFα vs LPS-activated cultures treated with vehicle” value was “did not affect”.
For `CC1=CCC2CC1C2(C)C` (stereo not drawn) [α-pinene], the “effect” value in experiment [1] is “no effects”.
Take `C=C1CCC2CC1C2(C)C` (stereo not drawn) [β-pinene]: in experiment [1], the “effect” value is “no effects”.
